The source of these data is patent US7674795B2, “Fluorene derivatives, composition containing said derivatives and the use thereof” (Aventis Pharma SA, priority 2005, dated 2010).

Where a name gives a salt, the structure may show the parent alone. Bounds are passed on as bounds.

Chain of Hsp82 (P02829 whole entry): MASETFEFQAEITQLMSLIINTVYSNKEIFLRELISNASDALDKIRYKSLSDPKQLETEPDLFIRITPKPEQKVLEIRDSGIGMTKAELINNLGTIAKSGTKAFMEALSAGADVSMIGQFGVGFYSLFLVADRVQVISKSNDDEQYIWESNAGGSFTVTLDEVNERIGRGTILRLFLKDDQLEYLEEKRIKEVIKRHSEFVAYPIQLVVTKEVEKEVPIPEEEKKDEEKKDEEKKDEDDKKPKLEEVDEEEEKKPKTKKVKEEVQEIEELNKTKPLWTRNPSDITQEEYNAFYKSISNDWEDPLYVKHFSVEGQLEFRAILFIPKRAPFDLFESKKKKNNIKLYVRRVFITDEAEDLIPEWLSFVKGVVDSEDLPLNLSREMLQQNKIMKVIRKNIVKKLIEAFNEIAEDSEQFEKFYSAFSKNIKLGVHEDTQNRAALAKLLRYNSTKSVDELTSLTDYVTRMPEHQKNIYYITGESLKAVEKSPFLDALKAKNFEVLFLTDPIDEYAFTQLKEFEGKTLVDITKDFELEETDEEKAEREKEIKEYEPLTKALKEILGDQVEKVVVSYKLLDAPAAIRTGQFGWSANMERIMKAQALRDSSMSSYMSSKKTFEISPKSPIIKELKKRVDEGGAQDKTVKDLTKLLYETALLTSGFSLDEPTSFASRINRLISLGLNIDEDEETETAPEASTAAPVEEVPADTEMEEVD

This assay concerns the target Hsp82 (Saccharomyces cerevisiae, UniProt P02829). Kind of assay: PK/LDH enzyme coupling test of the ATPase activity of Hsp82 (NADH decrease at 340 nm). The assay is classed as biochemical. The following applies: 1 μM Hsp82, 250 μM ATP, 37° C., pyruvate kinase/lactate dehydrogenase coupling, read-out: Hsp82 ATPase IC50. From the text: The formation of ADP due to the ATPase activity of Hsp82 was utilized for developing another method of evaluating the enzymatic activity of this enzyme by application of an enzyme coupling system employing pyruvate kinase (PK) and lactate dehydrogenase (LDH). In this spectrophotometric method of the kinetic type, the PK catalyses the formation of ATP and of pyruvate starting from phosphoenol-pyruvate (PEP) and the ADP produced by HSP82. The pyruvate that formed, an LDH substrate, is then converted to lactate in the presence of NADH. In this case, the decrease in the concentration of NADH, measured by the decrease in absorbance at wavelength of 340 nm, is proportional to the concentration of ADP produced by HSP82. […] This mixture is preincubated at 37° C. for 30 min before adding 3.77 units of LDH and 3.77 units of PK. The reaction is started by adding the product to be evaluated, in variable concentrations, and of Hsp82, at a concentration of 1 μM. The enzymatic activity of Hsp82 is then measured continuously in a microplate reader at 37° C., at wavelength of 340 nm. The initial reaction rate is found by measuring the slope of the tangent at the origin of the recorded curve. The enzymatic activity is expressed as μM of ADP formed per minute. The effect of the various products tested is expressed as percentage of inhibition of ATPase activity, using the following codes: • A: […]
Turning to `O=C(NC1c2ccccc2-c2c(-c3nc4ccncc4[nH]3)cccc21)C1CCOCC1` (racemic) [Example 32, [4-(3H-imidazo[4,5-c]pyridin-2-yl)-9H-fluoren-9(R,S)-yl]amide of tetrahydropyran-4-carboxylic acid], the IC50 – broadly, the point on the concentration scale where inhibition reaches its midpoint – is 10 to 100 µM.
As for `CC(C)(C)OC(=O)N1CCC(C(=O)NC2c3ccccc3-c3c(-c4nc5ccncc5[nH]4)cccc32)CC1` (racemic) [Example 33, tert-butyl ester of 4-[4-(3H-imidazo[4,5-c]pyridin-2-yl)-9H-fluoren-9(R,S)-ylcarbamoyl]-piperidine-1-carboxylic acid], the IC50 was 1 to 10 µM.
The same measure for `O=C(NC1c2ccccc2-c2c(-c3nc4ccncc4[nH]3)cccc21)c1cccc2cc(O)ccc12` (racemic) [Example 34, hydrochloride of [4-(3H-imidazo[4,5-c]pyridin-2-yl)-9H-fluoren-9(R,S)-yl]amide of 6-hydroxy-naphthalene-1-carboxylic acid]: 1 to 10 µM.
The same measure for `O=C(NC1c2ccccc2-c2c(-c3nc4ccncc4[nH]3)cccc21)c1cccc2cnccc12` (racemic) [Example 35, [4-(3H-imidazo[4,5-c]pyridin-2-yl)-9H-fluoren-9(R,S)-yl]amide of isoquinoline-5-carboxylic acid]: 10 to 100 µM; for `O=C(NC1c2ccccc2-c2c(-c3nc4ccncc4[nH]3)cccc21)C(=O)c1ccoc1` (racemic) [Example 36, 2-furan-3-yl-N-[4-(3H-imidazo[4,5-c]pyridin-2-yl)-9H-fluoren-9(R,S)-yl]-2-oxo-acetamide]: 1 to 10 µM.
For the compound `O=C(Cc1ccncc1)NC1c2ccccc2-c2c(-c3nc4ccncc4[nH]3)cccc21` (racemic) [Example 37, N-[4-(3H-imidazo[4,5-c]pyridin-2-yl)-9H-fluoren-9(R,S))-yl]-2-pyridin-4-yl-acetamide trifluoroacetate], the IC50 is 1 to 10 µM.
In the case of `O=C(NC1c2ccccc2-c2c(-c3nc4ccncc4[nH]3)cccc21)c1cccc2c1C=CCO2` (racemic) [Example 38, [4-(3H-imidazo[4,5-c]pyridin-2-yl)-9H-fluoren-9(R,S)-yl]amide trifluoroacetate of 2H-1-benzopyran-5-carboxylic acid] it was 1 to 10 µM; in that of `O=C(NC1c2ccccc2-c2c(-c3nc4ccncc4[nH]3)cccc21)c1cc[nH]n1` (racemic) [Example 39, [4-(3H-imidazo[4,5-c]pyridin-2-yl)-9H-fluoren-9(R,S)-yl]amide trifluoroacetate of 1H-pyrazole-3-carboxylic acid], 1 to 10 µM.
Consider `NC(=O)CCC(=O)NC1c2ccccc2-c2c(-c3nc4cnccc4[nH]3)cccc21` (racemic) [Example 40, N-[4-(3H-imidazo[4,5-c]pyridin-2-yl)-9H-fluoren-9(R,S)-yl]-succinamide trifluoroacetate], for which the IC50 lay in the range of 1 to 10 µM.
In the case of `O=C(NC1c2ccccc2-c2c(-c3nc4ccncc4[nH]3)cccc21)c1ccc2[nH]nnc2c1` (racemic) [Example 41, [4-(3H-imidazo[4,5-c]pyridin-2-yl)-9H-fluoren-9(R,S)-yl]amide trifluoroacetate of 1H-benzotriazole-5-carboxylic acid] it was less than 1 µM; in that of `O=C(Cc1n[nH]c(S)n1)NC1c2ccccc2-c2c(-c3nc4ccncc4[nH]3)cccc21` (racemic) [Example 42, N-[4-(3H-imidazo[4,5-c]pyridin-2-yl)-9H-fluoren-9(R,S)-yl]-2-(5-mercapto-4H-1,2,4-triazol-3-yl)-acetamide trifluoroacetate], 1 to 10 µM; in that of `O=C(NC1c2ccccc2-c2c(-c3nc4ccncc4[nH]3)cccc21)c1ccc2[nH]c(=O)[nH]c2c1` (racemic) [Example 43, [4-(3H-imidazo[4,5-c]pyridin-2-yl)-9H-fluoren-9(R,S)-yl]amide of 2-oxo-2,3-dihydro-1H-benzimidazole-5-carboxylic acid], 10 to 100 µM.
The same measure for `O=C(NC1c2ccccc2-c2c(-c3nc4ccncc4[nH]3)cccc21)c1cc(Cl)cc2[nH]cnc12` (racemic) [Example 44, [4-(3H-imidazo[4,5-c]pyridin-2-yl)-9H-fluoren-9(R,S)-yl]amide of 6-chloro-1H-benzimidazole-4-carboxylic acid]: 1 to 10 µM; for `O=C(NC1c2ccccc2-c2c(-c3nc4ccncc4[nH]3)cccc21)c1ccc2[nH]ncc2c1` (racemic) [Example 45, [4-(3H-imidazo[4,5-c]pyridin-2-yl)-9H-fluoren-9(R,S)-yl]amide of 1H-indazole-5-carboxylic acid]: 1 to 10 µM; for `O=C(NC1c2ccccc2-c2c(-c3nc4ccncc4[nH]3)cccc21)c1ccc2cc[nH]c2c1` (racemic) [Example 46, [4-(3H-imidazo[4,5-c]pyridin-2-yl)-9H-fluoren-9(R,S)-yl]amide of 1H-indole-6-carboxylic acid]: 1 to 10 µM.
In the case of `O=C(NC1c2ccccc2-c2c(-c3nc4ccncc4[nH]3)cccc21)c1ccncc1` (racemic) [Example 47, N-[4-(3H-imidazo[4,5-c]pyridin-2-yl)-9H-fluoren-9(R,S)-yl]-isonicotinamide] it was less than 1 µM; in that of `O=C(NC1c2ccccc2-c2c(-c3nc4ccncc4[nH]3)cccc21)c1cccnc1` (racemic) [Example 48, N-[4-(3H-imidazo[4,5-c]pyridin-2-yl)-9H-fluoren-9(R,S)-yl]-nicotinamide], 1 to 10 µM; in that of `CC(=O)CCC(=O)NC1c2ccccc2-c2c(-c3nc4ccncc4[nH]3)cccc21` (racemic) [Example 49, hydrochloride of [4-(3H-imidazo[4,5-c]pyridin-2-yl)-9H-fluoren-9(R,S)-yl]amide of 4-oxo-pentanoic acid], 10 to 100 µM.
`O=C(NC1c2ccccc2-c2c(-c3nc4ccncc4[nH]3)cccc21)c1cccc(O)c1` (racemic) [Example 50, hydrochloride of 3-hydroxy-N-[4-(3H-imidazo[4,5-c]pyridin-2-yl)-9H-fluoren-9(R,S)-yl]-benzamide]: the IC50 was 1 to 10 µM.
The same measure for `O=C(NC1c2ccccc2-c2c(-c3nc4ccncc4[nH]3)cccc21)N1CCOCC1` (racemic) [Example 51, [4-(3H-imidazo[4,5-c]pyridin-2-yl)-9H-fluoren-9(R,S)-yl]amide trifluoroacetate of morpholine-4-carboxylic acid]: 1 to 10 µM; for `CN(C)c1cccc2c(S(=O)(=O)NC3c4ccccc4-c4c(-c5nc6ccncc6[nH]5)cccc43)cccc12` (racemic) [Example 52, [4-(3H-imidazo[4,5-c]pyridin-2-yl)-9H-fluoren-9(R,S)-yl]amide trifluoroacetate of 5-dimethylamino-naphthalene-1-sulphonic acid]: 10 to 100 µM.
In the case of `O=C(NC1c2ccccc2-c2c(-c3nc4cnccc4[nH]3)cccc21)c1cccc2[nH]ccc12` (racemic) [Example 53, [4-(3H-imidazo[4,5-c]pyridin-2-yl)-9H-fluoren-9(R,S)-yl]amide of 1H-indole-4-carboxylic acid] it was 1 to 10 µM; in that of `Nc1ccc2c(C(=O)NC3c4ccccc4-c4c(-c5nc6cnccc6[nH]5)cccc43)cccc2c1` (racemic) [Example 54, [4-(3H-imidazo[4,5-c]pyridin-2-yl)-9H-fluoren-9(R,S)-yl]amide of 6-amino-naphthalene-1-carboxylic acid], 1 to 10 µM.
The same measure for `S=C(NC1c2ccccc2-c2c(-c3nc4cnccc4[nH]3)cccc21)c1cccc2ncccc12` (racemic) [Example 55, [4-(3H-imidazo[4,5-c]pyridin-2-yl)-9H-fluoren-9(R,S)-yl]amide trifluoroacetate of quinoline-5-carbothioic acid]: less than 1 µM; for `O=C(NC1c2ccccc2-c2c(-c3nc4cnccc4[nH]3)cccc21)c1ccc[n+]([O-])c1` (racemic) [Example 56, N-[4-(3H-imidazo[4,5-c]pyridin-2-yl)-9H-fluoren-9(R,S)-yl]-1-oxynicotinamide]: 1 to 10 µM; for `NC(=O)NCC(=O)NC1c2ccccc2-c2c(-c3nc4cnccc4[nH]3)cccc21` (racemic) [Example 58, N-[4-(3H-imidazo[4,5-c]pyridin-2-yl)-9H-fluoren-9(R,S)-yl]-2-ureido-acetamide]: 1 to 10 µM.
With `O=C1CCc2c1cccc2C(=O)NC1c2ccccc2-c2c(-c3nc4cnccc4[nH]3)cccc21` (racemic) [Example 60, [4-(3H-imidazo[4,5-c]pyridin-2-yl)-9H-fluoren-9(R,S)-yl]amide of 1-oxo-indan-4-carboxylic acid], the half-inhibitory concentration (IC50) was in the range of 1 to 10 µM.
Turning to `O=C(NC1c2ccccc2-c2c(-c3nc4cnccc4[nH]3)cccc21)c1nccc2ccccc12` (racemic) [Example 64, [4-(3H-imidazo[4,5-c]pyridin-2-yl)-9H-fluoren-9(R,S)-yl]amide of isoquinoline-1-carboxylic acid], the IC50 is 10 to 100 µM.
Consider `CC(=O)Nc1cc(C(=O)NC2c3ccccc3-c3c(-c4nc5cnccc5[nH]4)cccc32)ccn1` (racemic) [Example 66, 2-acetylamino-N-[4-(3H-imidazo[4,5-c]pyridin-2-yl)-9H-fluoren-9(R,S)-yl]-isonicotinamide], for which the IC50 was less than 1 µM.
